From patent publication US20260356990A1, “HEPARIN DODECASACCHARIDES CONTAINING TWO ANTITHROMBIN-BINDING SEQUENCES AS WELL AS PREPARATION METHODS AND APPLICATIONS THEREOF” (SHANDONG UNIVERSITY, priority 2022, published 2026)

Assays:
factor Xa [1] = assay: anti-factor Xa (FXa) activity, chromogenic substrate assay kit; type: biochemical; conditions: in vitro; for IC50 for anti-FXa activity: mass concentration; for IC50: molar concentration
Protocol: The anti-factor Xa (FXa) activity of the novel heparin dodecasaccharides I-2 and I-10 prepared in the present disclosure was determined using a commercially available chromogenic substrate assay kit. […] Therefore, the novel heparin dodecasaccharides I-2 and I-10 prepared in the present disclosure are specific inhibitors of factor Xa.

anticoagulant effect = conditions: background statement; cited from earlier work
factor Xa [2] = assay: neutralization effect of protamine on the anti-factor Xa activity, chromogenic substrate assay; type: biochemical; conditions: in vitro, protamine at different concentrations
Protocol: Using the chromogenic substrate assay, the effect of different concentrations of protamine on the anti-Factor Xa (FXa) activity of the novel heparin dodecasaccharides I-2 and I-10 was evaluated. […] The in vitro anti-FXa activity of the novel heparin dodecasaccharide I-2 could be reversed by >80% with protamine, as shown in FIG. 4. Therefore, the heparin dodecasaccharides I-2 and I-10 prepared in the present disclosure are novel heparin molecules whose anticoagulant activity can be neutralized by protamine.

factor IIa = assay: anti-factor IIa activity; type: biochemical; conditions: in vitro; data not shown

| SMILES | IC50 for anti-FXa activity (factor Xa [1]) [µg/mL] | IC50 (factor Xa [1]) [nM] | neutralization of the anticoagulant effect by protamine (in words) (anticoagulant effect) | reversal of the anti-FXa activity by protamine (in words) (factor Xa [2]) | anti-factor IIa activity (factor IIa) |
| --- | --- | --- | --- | --- | --- |
| CO[C@H]1O[C@H](COS(=O)(=O)O)[C@@H](O[C@@H]2O[C@@H](C(=O)O)[C@@H](O[C@H]3O[C@H](COS(=O)(=O)O)[C@@H](O[C@@H]4O[C@H](C(=O)O)[C@@H](O[C@H]5O[C@H](COS(=O)(=O)O)[C@@H](O)[C@H](O)[C@H]5NS(=O)(=O)O)[C@H](O)[C@H]4O)[C@H](OS(=O)(=O)O)[C@H]3NS(=O)(=O)O)[C@H](O)[C@H]2OS(=O)(=O)O)[C@H](O)[C@H]1NS(=O)(=O)O [fondaparinux sodium (Arixtra), reference compound] | 0.01263 | 7.3 | not neutralized by protamine | almost completely unneutralizable |  |
| CC(=O)N[C@H]1[C@@H](O[C@H]2[C@H](O)[C@@H](O)[C@H](O[C@H]3[C@H](OS(=O)(=O)O)[C@@H](NS(=O)(=O)O)[C@@H](O[C@H]4[C@H](O)[C@@H](OS(=O)(=O)O)[C@H](O[C@H]5[C@H](O)[C@@H](NS(=O)(=O)O)[C@@H](O[C@H]6[C@H](O)[C@@H](O)[C@H](Oc7ccc([N+](=O)[O-])cc7)O[C@@H]6C(=O)O)O[C@@H]5COS(=O)(=O)O)O[C@H]4C(=O)O)O[C@@H]3COS(=O)(=O)O)O[C@@H]2C(=O)O)O[C@H](COS(=O)(=O)O)[C@@H](O[C@@H]2O[C@@H](C(=O)O)[C@@H](O[C@H]3O[C@H](COS(=O)(=O)O)[C@@H](O[C@@H]4O[C@@H](C(=O)O)[C@@H](O[C@H]5O[C@H](COS(=O)(=O)O)[C@@H](O[C@@H]6O[C@H](C(=O)O)[C@@H](O[C@H]7O[C@H](COS(=O)(=O)O)[C@@H](O)[C@H](O)[C@H]7NS(=O)(=O)O)[C@H](O)[C@H]6O)[C@H](OS(=O)(=O)O)[C@H]5NS(=O)(=O)O)[C@H](O)[C@H]4OS(=O)(=O)O)[C@H](O)[C@H]3NS(=O)(=O)O)[C@H](O)[C@H]2OS(=O)(=O)O)[C@@H]1O [Compound I-10] | 0.01803 | 4.54 |  | completely reversed | no significant anti-factor IIa activity |
| CC(=O)N[C@H]1[C@@H](O[C@H]2[C@H](O)[C@@H](O)[C@H](O[C@H]3[C@H](OS(=O)(=O)O)[C@@H](NS(=O)(=O)O)[C@@H](O[C@H]4[C@H](O)[C@@H](OS(=O)(=O)O)[C@H](O[C@H]5[C@H](O)[C@@H](NS(=O)(=O)O)[C@@H](O[C@H]6[C@H](O)[C@@H](O)[C@H](Oc7ccc([N+](=O)[O-])cc7)O[C@@H]6C(=O)O)O[C@@H]5COS(=O)(=O)O)O[C@H]4C(=O)O)O[C@@H]3COS(=O)(=O)O)O[C@@H]2C(=O)O)O[C@H](COS(=O)(=O)O)[C@@H](O[C@@H]2O[C@H](C(=O)O)[C@@H](O[C@H]3O[C@H](COS(=O)(=O)O)[C@@H](O[C@@H]4O[C@@H](C(=O)O)[C@@H](O[C@H]5O[C@H](COS(=O)(=O)O)[C@@H](O[C@@H]6O[C@H](C(=O)O)[C@@H](O[C@H]7O[C@H](COS(=O)(=O)O)[C@@H](O)[C@H](O)[C@H]7NS(=O)(=O)O)[C@H](O)[C@H]6O)[C@H](OS(=O)(=O)O)[C@H]5NS(=O)(=O)O)[C@H](O)[C@H]4OS(=O)(=O)O)[C@H](O)[C@H]3NS(=O)(=O)O)[C@H](O)[C@H]2O)[C@@H]1O [Compound I-2] | 0.01677 | 4.34 |  |  | no significant anti-factor IIa activity |
